{
  "source": "paper PMC6832219",
  "about": "“Synthesis of Novel Baicalein Amino Acid Derivatives and Biological Evaluation as Neuroprotective Agents” (Molecules, 2019)",
  "key": {"injured SH-SY5Y cells [1]": {"test_system": "injured SH-SY5Y cells", "assay": "Morphological detection of apoptosis using Giemsa staining", "type": "cell-based", "conditions": "6.25, 12.5, 25 μM, 72 h", "description": "SH-SY5Y cells in the logarithmic growth phase were seeded in 12-well plates (1.2 × 10^4 cells/well). After incubation for 24 h at 37 °C with 5% CO2, various concentrations ([…] concentrations) of compound 8 were added to the cultures, and the plate was incubated for a further 72 h. Then, we discarded the cell culture fluid, washed twice with phosphate-buffered saline (PBS), and fixed the cells with cold methanol. The SH-SY5Y cells were stained with 6% Giemsa solution for 5 min, washed with water, and dried. The cell morphological changes were observed under an inverted microscope.\nFigure 2 Morphological detection of apoptosis using Giemsa staining (200×) on injured SH-SY5Y cells treated with compound 8: (a) control group, (b) injury group, (c) 6.25 μM, (d) 12.5 μM, and (e) 25 μM."}, "injured SH-SY5Y cells [2]": {"test_system": "injured SH-SY5Y cells", "assay": "Protective effect against tert-butyl hydroperoxide-induced SH-SY5Y neurotoxicity cells (MTT assay);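 as to Proliferation Rate (%): 0% equals CoCl2-injured cells and 100% equals NGF-treated cells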", "type": "cell-based", "conditions": "Homo sapiens", "description": "The protective effects of baicalein derivatives in vitro was evaluated against tert-butyl, hydroperoxide-induced, SH-SY5Y neurotoxicity cells using an MTT assay. In addition, their toxicity evaluation was tested on normal H9C2 cells. The resulting proliferation rates (%) at different concentrations, as well as their 50% effective concentrations (EC50) for protecting damaged SH-SY5Y cells of the baicalein amino acid derivatives, are summarized in Table 2.\nThe SH-SY5Y ([…]) and H9C2 ([…]) cell lines were obtained from the Chinese Academy of Medical Sciences and Peking Union Medical College. All of the cell lines were grown in dulbecco’s modified eagle medium (DMEM) with 10% (v/v) fetal bovine serum (FBS) and 1% (v/v) penicillin/streptomycin (Thermo Technologies, New York, NY, USA), under a humidified atmosphere containing 5% CO2 at 37 °C. The baicalein derivatives were dissolved in DMSO (Sigma, St. Louis, MO, USA) and added at various concentrations to the cell culture.\nThe protective effect of these compounds was evaluated on SH-SY5Y and H9C2 cell lines via the MTT method. The cells growing in the logarithmic phase were cultured in 96-well plates at a density 3 × 10^3 cells/well and incubated for 24 h. Then each well was treated with the required concentrations (50 µM concentrations, 25 µM concentrations, 12.5µM concentrations, 6.25 µM concentrations, and 3.125 µM concentrations) of baicalein derivatives, and incubated 36 h at 37 °C with 5% CO2. After that, the cells were induced by H2O2 (final concentration, […]) for 12 h. Control-differentiated cells were injected with new growth media at equal amounts. Before […] MTT solution (5 mg/mL) was added to each well, the cell culture fluid was discarded, and […] fresh cell culture fluid was added. The plate was incubated for a further 4 h at 37 °C. The cell supernatant medium was removed carefully, without disturbing the attached cells, and formazan crystals were solubilized by adding 150 μL DMSO into each well. The absorbance was measured at 490 nm with a plate reader (BIORAD 550 spectrophotometer, Bio-rad Life Science Development Ltd., Beijing, China). H2O2 was dissolved in DMEM medium. Wells without drugs were used as blanks. The EC50 values were defined as the concentrations that causes the maximum effect of 50%; IC50 values were defined as the concentration of compound which gives 50% growth inhibition, and were calculated using the GraphPad Prism 5. The proliferation rates of damaged SH-SY5Y cells were calculated in the following formula (1): [OD490 (compound) − OD490 (CoCl2)]/[OD490 (NGF) − OD490 (CoCl2)] × 100%(1) The EC50 values were using the equation −pEC50 = log Cmax − log 2 × (ΣP − 0.75 + 0.25Pmax + 0.25Pmin)(2) where Cmax is the maximum concentration, ΣP is the sum of proliferation rates, Pmax is the maximum value of the proliferation rate, and Pmin is the minimum value of the proliferation rate. Cell viability was expressed as a percentage of the control."}, "[3]": {"test_system": "chick chorioallantoic membrane (CAM)", "assay": "Angiogenesis assay on chick chorioallantoic membrane (CAM), gelatin sponge", "type": "in vivo", "conditions": "1 and 4 mg/mL on gelatin sponge", "description": "Especially multi-effective neuroprotective agents present positive effects to neurosurgical patients. According to the references, baicalein can promote angiogenesis. Analogously, the angiogenesis activities of compound 8 were evaluated by a CAM assay (Figure 4 and Figure 5). The model was established according to our previous work. After implantation, the sponge is treated with a stimulator of blood vessel formation in the absence or presence of an angiogenesis inhibitor. […] The high survival rate of embryos and normal growth of medium and large vessels (inner diameter > 50 µm) indicates successful modeling and low toxicity of compound 8 […] (Figure 5). Suppression of small vessels (inner diameter < 50 µm) were recognized as angiogenesis activity. […]\nFertilized White Leghorn chicken eggs (50–65 g), provided by the Chinese Academy of Agricultural Sciences, were placed in an incubator as soon as embryogenesis started, and were kept under constant humidity of 65% at 37 °C. […] Quantitative evaluation of the angiogenic response, expressed as microvessel density, can be obtained by applying a morphometric method of “point counting” on histological CAM sections. Data was analyzed using a t-test of the statistics analysis system; the values were expressed as mean ± SD of six observations, and p < 0.05 was considered significant. […]"}, "H9C2 cells": {"test_system": "H9C2 cells", "assay": "Toxicity on normal H9C2 cells (MTT assay)", "type": "cell-based", "conditions": "read-out: Survival Rate (%)"}},
  "data": [
    {"smiles": "O=C(NC(Cc1ccccc1)C(=O)Oc1c(O)cc2oc(-c3ccccc3)cc(=O)c2c1O)OCc1ccccc1", "note": "(stereo not shown) [Compound 8, 5,7-dihydroxy-4-oxo-2-phenyl-4H-chromen-6-yl 2-{[(benzyloxy)carbonyl]amino}-3-phenyl-proppanpate]", "values": [
      {"measurement": "Nuclear and cytoplasmic morphological changes (Giemsa staining)", "setting": "injured SH-SY5Y cells [1]", "result": "alleviating morphological manifestations of cell damage"},
      {"measurement": "viability at 3.125 µM", "setting": "injured SH-SY5Y cells [2]; 3.125 µM, injured SH-SY5Y cells, read-out: Proliferation Rate (%)", "result": 52.5, "unit": "%"},
      {"measurement": "viability at 6.25 µM", "setting": "injured SH-SY5Y cells [2]; 6.25 µM, injured SH-SY5Y cells, read-out: Proliferation Rate (%)", "result": 75.1, "unit": "%"},
      {"measurement": "viability at 12.5 µM", "setting": "injured SH-SY5Y cells [2]; 12.5 µM, injured SH-SY5Y cells, read-out: Proliferation Rate (%)", "result": 83.1, "unit": "%"},
      {"measurement": "viability at 25 µM", "setting": "injured SH-SY5Y cells [2]; 25 µM, injured SH-SY5Y cells, read-out: Proliferation Rate (%)", "result": 87.3, "unit": "%"},
      {"measurement": "viability at 50 µM", "setting": "injured SH-SY5Y cells [2]; 50 µM, injured SH-SY5Y cells, read-out: Proliferation Rate (%)", "result": 94, "unit": "%"},
      {"measurement": "EC50", "setting": "injured SH-SY5Y cells [2]; tert-butyl hydroperoxide-induced SH-SY5Y neurotoxicity, read-out: EC50 for protecting injured SH-SY5Y cells", "result": 4.31, "unit": "µM"},
      {"measurement": "Toxicity in CAM model (embryo survival, medium and large vessels)", "setting": "[3]", "result": "low toxicity"},
      {"measurement": "Angiogenesis activity on CAM (small vessels)", "setting": "[3]; 48 h", "result": "dramatically promote small angiogenesis in a dose-dependent manner"},
      {"measurement": "viability at 100 µM", "setting": "H9C2 cells", "result": 168, "unit": "%"}
    ]}
  ]
}
